The values that follow come from EP0199524B1, “Platinum tramine antitumor agents” (ENGELHARD CORPORATION, priority 1985, dated 1986).

The conditions of assay [1]: literature statement on charged platinum species; cited from earlier work.
The subject of assay [2] is S180 ascites. Put plainly: Screening for anti-tumor activity against S180 ascites (S180a) in mice. Format: in vivo, female CFW Swiss mice. On the procedure: The compounds were evaluated for anti-tumor activity against S180 ascites in female CFW Swiss mice by the following procedure: CFW mice, averaging 20g, are immediately inspected and placed in newly prepared cages. On day zero the mice are inoculated with 0.2 ml. of a freshly prepared saline suspension (0.15 M NaCl) containing 1 x 10⁷ tumor cells/ml, or a total of 2 x 10⁶ cells. This inoculum is freshly prepared using "transfer" mice which have been injected with tumor cells the previous week. This inoculum is the end-product of a series of steps which involves (1) the removal of the cells from the peritoneal cavity of the sacrificed transfer mouse, (2) alternate centrifugation-washing (2-3 times with cold saline) to remove occasional blood and other undesirable components, and finally (3) dilution (1:3) of the packed cell volume with saline (the final centrifugation being carried out at 1,000 rpm for 2 min.). A cell count is made on a 2,000-fold dilution of this 1:3 suspension by means of a Coulter Counter. A final dilution to 1 x 10⁷ cells/ml. is made based on the averaged count. On day 1, solutions of the test compounds are prepared and the mice injected, with each mouse of a set of six being injected with the same test compound at the same dose level.
ILS values above 50% represent significant activity; those above 75% represent excellent activity.

Where [3] appears, read: 8 mg/kg in saline, positive control run with each experiment, S180a in mice.

The structures appear in SMILES notation. Several values for one entry are separate records, joined by “and”; a condition that tells them apart may be missing. Equal values may be shown once.

Turning to `[Cl][Pt-2]([Cl])([Cl])[Cl].[K+].[K+]` [K₂PtCl₄], the antitumor activity result in assay [1] was “completely inactive”. Consider `N.N.N.N.[Cl][Pt][Cl]` [[Pt(NH₃)₄]Cl₂], for which the antitumor activity entry in assay [1] was “completely inactive”. `N.N.[Cl][Pt][Cl]` [cis-[Pt(NH3)2Cl2], cis-diamminedichloroplatinum(II), reference compound]: in assay [2] (setting [3]), the “Positive Control 30-Day Survivors” value is 2/6 and 4/6 and 1/6 and 3/6 and 2/7; the “Positive Control %ILS” value was 79% and 66% and 80% and 94% and 73% and 72% and 98%. The “optimum activity (dose)” value in assay [2] (under identical screening) was 9 to 10 mg/kg.
